Data from Sander's compilation of Henry's law constants (doi:10.1002/etc.5620111109).

Legend:
[1] = Henry solubility constant Hcp at 293 K (mol/(m3 Pa)); details: reference: ten Hulscher et al. (1992)
[2] = Henry solubility constant Hcp at 298.15 K (mol/(m3 Pa)); details: reference: ten Hulscher et al. (1992)

Structure (SMILES) | Henry solubility constant Hcp at 293 K [1] | Henry solubility constant Hcp [2]
Clc1cccc(Cl)c1Cl [1,2,3-trichlorobenzene] | 0.014 | 
Clc1ccc(Cl)c(-c2cc(Cl)ccc2Cl)c1 [2,2',5,5'-tetrachlorobiphenyl] |  | 0.042
c1ccc2c(c1)-c1cccc3c1c-2cc1ccccc13 [benzo[b]fluoranthene] |  | 15
c1ccc2c(c1)-c1cccc3cccc-2c13 [benzo[jk]fluorene] |  | 1.1
c1cc2ccc3ccc4ccc5cccc6c(c1)c2c3c4c56 [benzo[ghi]perylene] |  | 30
c1ccc2c(c1)-c1ccc3ccc4cccc5cc-2c1c3c45 [indeno[1,2,3-cd]pyrene] |  | 28
c1ccc2c(c1)cc1ccc3cccc4ccc2c1c34 [benzo[a]pyrene] |  | 22
c1ccc2cc3c(cc2c1)-c1cccc2cccc-3c12 [benzo[k]fluoranthene] |  | 17
Clc1ccc(Cl)c(-c2ccccc2)c1 [2,5-dichlorobiphenyl] |  | 0.023
Clc1cc(Cl)c(Cl)c(Cl)c1 [1,2,3,5-tetrachlorobenzene] | 0.01 | 
Clc1cc(Cl)cc(Cl)c1 [1,3,5-trichlorobenzene] | 0.0052 | 
